One experiment concerns the target T1, GIPR (Homo sapiens, UniProt P48546).
T1 construct: host or cells: CHO
T1 sequence (P48546 22-466): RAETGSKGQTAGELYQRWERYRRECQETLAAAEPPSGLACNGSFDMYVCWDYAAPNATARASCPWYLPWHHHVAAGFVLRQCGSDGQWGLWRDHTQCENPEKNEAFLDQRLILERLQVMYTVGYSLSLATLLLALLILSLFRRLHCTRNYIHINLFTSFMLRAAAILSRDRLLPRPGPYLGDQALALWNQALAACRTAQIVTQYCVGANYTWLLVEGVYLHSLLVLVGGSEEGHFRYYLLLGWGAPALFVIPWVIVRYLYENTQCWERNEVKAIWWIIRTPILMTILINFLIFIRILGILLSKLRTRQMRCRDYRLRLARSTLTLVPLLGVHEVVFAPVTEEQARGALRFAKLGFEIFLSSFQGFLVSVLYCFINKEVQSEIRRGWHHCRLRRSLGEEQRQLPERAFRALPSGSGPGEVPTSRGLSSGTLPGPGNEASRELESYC
Description: GIPR agonist activity test in vitro (cAMP assay). In kind it is cell-based. To be noted: CHO host cell. The method, then:
(§1) The cell strains were constructed by Shanghai WuXi AppTec.
(§2) The test compound was serially diluted 4-fold with 10 points. The initial concentration was 30 μM, and the dilution was completed with Bravo.
(§3) 1) 100 nL of the compound was transferred to OptiPlate-384 plate using Echo.
(§4) 7) The GLP-1R/GIPR cell concentration was diluted to 2.0*10^5/mL with the experimental buffer.
(§5) 8) […] of the diluted cell suspension was transferred into the OptiPlate-384 plate.
(§6) 9) The diluted cell suspension was incubated at room temperature for 30 minutes.
(§7) 2) 10 μL of cAMP detection reagent was added.
(§8) 3) The OptiPlate-384 plate was covered with TopSeal-A film and incubated at room temperature for 60 minutes.
(§9) TopSeal-A was removed and read in EnVision.
A general note: Cyclic AMP is a second messenger, typically raised through Gs and lowered through Gi signalling.

A further experiment has as its target T2, GLP-1R (Homo sapiens, UniProt P43220).
T2 construct: host or cells: HEK293
Description: GLP-1R agonist activity test in vitro (cAMP assay). In kind it is cell-based. The note with it: HEK293 host cell. The method, then: as §1, §2, §3, §4, §5, §6, §7, §8, §9

Setting [1] is: GIPR Agonist Activity EC50 (−) 1% HSA, without 1% HSA.
Setting [2] is: GLP-IR Agonist Activity EC50 (−) 1% HSA, without 1% HSA.

The record followed here is US20240067702A1, “LACTAM-MODIFIED P[…]” (DONGBAO PURPLE STAR (HANGZHOU) BIOPHARMACEUTICAL CO., LTD., priority 2020, published 2024).

Molecules are shown by their SMILES. pEC50: −log10 of the molar value. *1 amine or outer side, *2 acyl side, *3 side chain or, on linkers, in order; H or OH if unused. Where a SMILES comes first, the peptide text is derived from it. Bridges are numbered along the chain shown (N, C = ends). Side-chain parts run from the residue outwards. [ ]: non-standard residue; d: D form. The star is where a group is joined. C20 diacid = O=C(O)CCCCCCCCCCCCCCCCCCC(=O)*; C18 diacid = O=C(O)CCCCCCCCCCCCCCCCC(=O)*; γGlu = O=C(O)[C@H](CCC(=O)[*:2])N[*:1]; AEEA = NCCOCCOCC(=O)O; Aib = CC(C)(N)C(=O)O

T2 sequence (P43220 24-463): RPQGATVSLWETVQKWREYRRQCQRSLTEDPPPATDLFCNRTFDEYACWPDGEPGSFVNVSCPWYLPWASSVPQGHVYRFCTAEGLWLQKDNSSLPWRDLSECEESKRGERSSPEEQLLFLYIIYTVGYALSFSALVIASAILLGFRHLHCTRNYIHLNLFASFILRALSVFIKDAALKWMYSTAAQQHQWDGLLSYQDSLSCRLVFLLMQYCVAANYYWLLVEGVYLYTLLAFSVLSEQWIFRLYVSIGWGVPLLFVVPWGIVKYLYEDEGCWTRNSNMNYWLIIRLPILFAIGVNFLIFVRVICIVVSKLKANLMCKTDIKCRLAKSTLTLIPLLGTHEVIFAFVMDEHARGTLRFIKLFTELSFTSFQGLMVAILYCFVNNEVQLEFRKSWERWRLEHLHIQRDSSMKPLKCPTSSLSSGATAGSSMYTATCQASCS

Broadly, the pEC50 is −log10 of the EC50, conventionally taken in molar units. Lower therefore signals a large EC50. Consider `CC[C@H](C)[C@H](NC(=O)[C@@H]1CCCCNC(=O)CC[C@H](NC(=O)[C@@H](NC(=O)[C@H](CO)NC(=O)[C@H](Cc2ccc(O)cc2)NC(=O)[C@H](CC(=O)O)NC(=O)[C@H](CO)NC(=O)[C@@H](NC(=O)[C@H](Cc2ccccc2)NC(=O)[C@@H](NC(=O)CNC(=O)[C@H](CCC(=O)O)NC(=O)C(C)(C)NC(=O)[C@@H](N)Cc2ccc(O)cc2)[C@@H](C)O)[C@@H](C)O)[C@@H](C)CC)C(=O)N[C@@H](CC(C)C)C(=O)N[C@@H](CC(=O)O)C(=O)N1)C(=O)N[C@@H](C)C(=O)N[C@@H](CCC(N)=O)C(=O)N[C@@H](CCCCNC(=O)COCCOCCNC(=O)COCCOCCNC(=O)CC[C@H](NC(=O)CCCCCCCCCCCCCCCCCCC(=O)O)C(=O)O)C(=O)N[C@@H](C)C(=O)N[C@@H](Cc1ccccc1)C(=O)N[C@H](C(=O)N[C@@H](CCC(N)=O)C(=O)N[C@@H](Cc1c[nH]c2ccccc12)C(=O)N[C@@H](CC(C)C)C(=O)N[C@H](C(=O)N[C@@H](C)C(=O)NCC(=O)NCC(=O)N1CCC[C@H]1C(=O)N[C@@H](CO)C(=O)N[C@@H](CO)C(=O)NCC(=O)N[C@@H](C)C(=O)N1CCC[C@H]1C(=O)N1CCC[C@H]1C(=O)N1CCC[C@H]1C(=O)N[C@@H](CO)C(N)=O)[C@@H](C)CC)C(C)C` [WX-010] (H-Y[Aib]EGTFTSDYSIELDKIAQK([AEEA-AEEA-γGlu-C20 diacid])AFVQWLIAGGPSSGAPPPS-NH2; lactam 13-16), for which the pEC50 at GIPR (GIPR Agonist Activity EC50 (+) 1% HSA, with 1% HSA) was 6.35; on GIPR (setting [1]), 7.93; at GLP-1R (GLP-IR Agonist Activity EC50 (+) 1% HSA, with 1% HSA) it was 7.47; at GLP-1R (setting [2]), 10.46.
For the compound `CC[C@H](C)[C@H](NC(=O)[C@H](CC(C)C)NC(=O)[C@H](Cc1c[nH]c2ccccc12)NC(=O)[C@H](CCCCNC(=O)COCCOCCNC(=O)COCCOCCNC(=O)CC[C@H](NC(=O)CCCCCCCCCCCCCCCCCCC(=O)O)C(=O)O)NC(=O)[C@@H](NC(=O)[C@H](Cc1ccccc1)NC(=O)[C@H](C)NC(=O)[C@@H]1CCCCNC(=O)CC[C@H](NC(=O)[C@H](CCCCN)NC(=O)[C@H](CC(=O)O)NC(=O)[C@H](CC(C)C)NC(=O)C(C)(C)NC(=O)[C@@H](NC(=O)[C@H](CO)NC(=O)[C@H](Cc2ccc(O)cc2)NC(=O)[C@H](CC(=O)O)NC(=O)[C@H](CO)NC(=O)[C@@H](NC(=O)[C@H](Cc2ccccc2)NC(=O)[C@@H](NC(=O)CNC(=O)[C@H](CCC(=O)O)NC(=O)C(C)(C)NC(=O)[C@@H](N)Cc2ccc(O)cc2)[C@@H](C)O)[C@@H](C)O)[C@@H](C)CC)C(=O)N[C@@H](C)C(=O)N[C@@H](CCC(N)=O)C(=O)N1)C(C)C)C(=O)N[C@@H](C)C(=O)NCC(=O)NCC(=O)N1CCC[C@H]1C(=O)N[C@@H](CO)C(=O)N[C@@H](CO)C(=O)NCC(=O)N[C@@H](C)C(=O)N1CCC[C@H]1C(=O)N1CCC[C@H]1C(=O)N1CCC[C@H]1C(=O)N[C@@H](CO)C(N)=O` [WX-008] (H-Y[Aib]EGTFTSDYSI[Aib]LDKEAQKAFVK([AEEA-AEEA-γGlu-C20 diacid])WLIAGGPSSGAPPPS-NH2; lactam 17-20), the pEC50 was 9.49 on GIPR (setting [1]) and 10.10 at GLP-1R (setting [2]).
For the compound `CC[C@H](C)[C@H](NC(=O)[C@H](CO)NC(=O)[C@H](Cc1ccc(O)cc1)NC(=O)[C@H](CC(=O)O)NC(=O)[C@H](CO)NC(=O)[C@@H](NC(=O)[C@H](Cc1ccccc1)NC(=O)[C@@H](NC(=O)CNC(=O)[C@H](CCC(=O)O)NC(=O)C(C)(C)NC(=O)[C@@H](N)Cc1ccc(O)cc1)[C@@H](C)O)[C@@H](C)O)C(=O)NC(C)(C)C(=O)N[C@@H](CC(C)C)C(=O)N[C@@H](CC(=O)O)C(=O)N[C@@H](CCCCN)C(=O)N[C@@H](CCCCNC(=O)COCCOCCNC(=O)COCCOCCNC(=O)CC[C@H](NC(=O)CCCCCCCCCCCCCCCCCCC(=O)O)C(=O)O)C(=O)N[C@@H](C)C(=O)N[C@@H](CCC(N)=O)C(=O)N[C@H]1CCCCNC(=O)CC[C@@H](C(=O)N[C@@H](Cc2c[nH]c3ccccc23)C(=O)N[C@@H](CC(C)C)C(=O)N[C@@H](CC(C)C)C(=O)N[C@@H](C)C(=O)NCC(=O)NCC(=O)N2CCC[C@H]2C(=O)N[C@@H](CO)C(=O)N[C@@H](CO)C(=O)NCC(=O)N[C@@H](C)C(=O)N2CCC[C@H]2C(=O)N2CCC[C@H]2C(=O)N2CCC[C@H]2C(=O)N[C@@H](CO)C(N)=O)NC(=O)[C@H](C(C)C)NC(=O)[C@H](Cc2ccccc2)NC(=O)[C@H](C)NC1=O` [WX-007] (H-Y[Aib]EGTFTSDYSI[Aib]LDKK([AEEA-AEEA-γGlu-C20 diacid])AQKAFVEWLLAGGPSSGAPPPS-NH2; lactam 20-24), the negative-log EC50 (pEC50) on GIPR (setting [1]) is 9.89; on GLP-1R (setting [2]), 9.85.
For `CC[C@H](C)[C@H](NC(=O)[C@H](CC(C)C)NC(=O)[C@H](Cc1c[nH]c2ccccc12)NC(=O)[C@@H]1CCC(=O)NCCCC[C@H](NC(=O)[C@H](CCC(N)=O)NC(=O)[C@H](C)NC(=O)[C@H](CCCCNC(=O)COCCOCCNC(=O)COCCOCCNC(=O)CC[C@H](NC(=O)CC[C@H](NC(=O)CCCCCCCCCCCCCCCCC(=O)O)C(=O)O)C(=O)O)NC(=O)[C@H](CCCCN)NC(=O)[C@H](CC(=O)O)NC(=O)[C@H](CC(C)C)NC(=O)C(C)(C)NC(=O)[C@@H](NC(=O)[C@H](CO)NC(=O)[C@H](Cc2ccc(O)cc2)NC(=O)[C@H](CC(=O)O)NC(=O)[C@H](CO)NC(=O)[C@@H](NC(=O)[C@H](Cc2ccccc2)NC(=O)[C@@H](NC(=O)CNC(=O)[C@H](CCC(=O)O)NC(=O)C(C)(C)NC(=O)[C@@H](N)Cc2ccc(O)cc2)[C@@H](C)O)[C@@H](C)O)[C@@H](C)CC)C(=O)N[C@@H](C)C(=O)N[C@@H](Cc2ccccc2)C(=O)N[C@@H](C(C)C)C(=O)N1)C(=O)N[C@@H](C)C(=O)NCC(=O)NCC(=O)N1CCC[C@H]1C(=O)N[C@@H](CO)C(=O)N[C@@H](CO)C(=O)NCC(=O)N[C@@H](C)C(=O)N1CCC[C@H]1C(=O)N1CCC[C@H]1C(=O)N1CCC[C@H]1C(=O)N[C@@H](CO)C(N)=O` [WX-003] (H-Y[Aib]EGTFTSDYSI[Aib]LDKK([AEEA-AEEA-γGlu-γGlu-C18 diacid])AQKAFVEWLIAGGPSSGAPPPS-NH2; lactam 20-24), the pEC50 was 9.52 on GIPR (setting [1]) and 10.05 at GLP-1R (setting [2]).
